Measured values published in patent US20110185440A1, “CISD2-Knockout Mice and Uses Thereof” (NATIONAL YANG-MING UNIVERSITY, priority 2006, published 2011).

What was measured:
Cisd2 knockout mice [1] = test: Body weight of Cisd2 knockout mice after oral resveratrol treatment; type: in vivo, mouse; settings: 30 mg/kg/day oral from 4- to 12-week old; effect after 8-week old; P<0.05 vs untreated control
Experimental: (17A) Oral administration of resveratrol (30 mg/kg/day) to Cisd2 knockout mice from 4- to 12-week old. (17B) To analyze the body weight of the Cisd2 knockout mice after resveratrol treatment and compare to 4-week old wild-type mice. Values represent mean±s.d from at least three male samples. Asterisks indicate statistically significant differences compare with untreated control. (*, P<0.05) Resveratrol (30 mg/kg/day) was administered by oral to Cisd2 knockout mice from 4- to 12-week old. The body weight of the Cisd2 knockout mice was analyzed after resveratrol treatment and comparing to 4-week old wild-type mice (FIG. 17).

Cisd2 knockout mice [2] = test: Muscle and neuron degeneration in Cisd2 knockout mice after resveratrol treatment (H&E staining, TEM); type: in vivo, mouse; settings: 30 mg/kg/day oral from 4- to 12-week old
Text: (18A-F) H&E staining of transverse sections of skeletal muscle dissected from the 12-week old, male Cisd2 knockout mice with (18A) untreated control, (18B) resveratrol or (18C) H2O treatment, and (18D-F) relative wild-type control. Black arrowheads indicate degenerated transverse fibers. Blue arrows indicate angular fibres which are the evidences of muscle atrophy caused by neuron degeneration. (18G) The standard quantification score of muscle atrophy. (18H) The quantification of degenerative muscle fiberin under resveratrol treated or not. About 1000 muscle fibre in random fields of H&E staining slides were examined for each mouse. Values represent mean±s.d from at least three male samples. […] Myelin sheath degeneration (asterisks) was detected only in the Cisd2 knockout mice. […] (18U) The standard quantification score of axon and myelin sheath degeneration. (18V) The quantification of degenerative sciatic nerve in wild-type, Cisd2 knockout and Cisd2 knockout mice with resveratrol treatment, respectively. […] The standard quantification score of muscle atrophy was prepared. The quantification of degenerative muscle fiberin was measured under resveratrol treated or not. […] Myelin sheath degeneration was detected only in the Cisd2 knockout mice. The standard quantification score of axon and myelin sheath degeneration was created. […]

Oc1ccc(C=Cc2cc(O)cc(O)c2)cc1 [Resveratrol]
body weight of Cisd2 knockout mice (Cisd2 knockout mice [1]): significant reverse | muscle degeneration of the Cisd2 knockout mice (Cisd2 knockout mice [2]; 12-week old male mice, skeletal muscle H&E, skeletal and cardiac muscle ultrastructure): partial rescue | neuron degeneration of the Cisd2 knockout mice (Cisd2 knockout mice [2]; 12-week old mice, sciatic nerve TEM, axon and myelin sheath degeneration): partial rescue
